Experimental data: US8507411B2, “Neoglycorandomization and digitoxin analogs” (priority 2004, dated 2013)
Like-named read-outs stand apart in the source and are kept apart here.

Experiments:
NmuMG = assay: cells; format: cell-based, mouse
Outline: (§1)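 Calcein fluorescence (485/535 nm) reports intracellular esterase activity of surviving cells after 72 h compound treatment. Each IC50 derives from at least six dose-response runs over a five-point two-fold dilution series.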

NCI-H460 = assay: High-throughput calcein AM cytotoxicity assay, NCI-H460; format: cell-based, human; details: NCI-H460 cells
Excerpt: (§2) Standard errors are depicted with error bars.

A549 = assay: High-throughput calcein AM cytotoxicity assay, A549; format: cell-based, human; details: A549 cells
Excerpt: as §2

Hep3B = assay: High-throughput calcein AM cytotoxicity assay, Hep3B; format: cell-based, human; details: Hep 3B cells
Excerpt: as §2

HCT-116 = assay: High-throughput calcein AM cytotoxicity assay, HCT-116; format: cell-based, human; details: HCT-116 cells
Excerpt: as §2

SF-268 = assay: cells; format: cell-based, human; details: SF-268 cells
Outline: as §1

NCI/ADR-RES = assay: cells; format: cell-based, human; details: NCI/ADR-RES cells
Outline: as §1

SK-OV-3 = assay: cells; format: cell-based, human; details: SK-OV-3 cells
Outline: as §1

Du145 = assay: High-throughput calcein AM cytotoxicity assay, Du145; format: cell-based, human; details: Du145 cells
Excerpt: as §2

MCF7 = assay: High-throughput calcein AM cytotoxicity assay, MCF7; format: cell-based, human; details: MCF7 cells
Excerpt: as §2

[1] = NmuMG mouse mammary normal epithelial control line, read-out: IC50, NmuMG
[2] = NmuMG cells (mouse mammary normal epithelial control line), read-out: IC50

Structure (SMILES)	IC50 (NmuMG; [1]) [nM]	IC50 (NCI-H460; read-out: IC50, NCI-H460) [nM]	IC50 (A549; read-out: IC50, A549) [nM]	IC50 (Hep3B; read-out: IC50, Hep 3B) [nM]	IC50 (HCT-116; read-out: IC50, HCT-116) [nM]	IC50 (SF-268; read-out: IC50, SF-268) [nM]	IC50 (NCI/ADR-RES; read-out: IC50, NCI/ADR-RES) [nM]	IC50 (SK-OV-3; read-out: IC50, SK-OV-3) [nM]	IC50 (Du145; read-out: IC50, Du145) [nM]	IC50 (MCF7; read-out: IC50, MCF7) [nM]	IC50 (NmuMG; [2]) [nM]	IC50 (NCI-H460; read-out: IC50) [nM]	IC50 (A549; read-out: IC50) [nM]	IC50 (Hep3B; read-out: IC50) [nM]	IC50 (HCT-116; read-out: IC50) [nM]	IC50 (SF-268; read-out: IC50) [nM]	IC50 (NCI/ADR-RES; read-out: IC50) [nM]	IC50 (SK-OV-3; read-out: IC50) [nM]	IC50 (Du145; read-out: IC50) [nM]	IC50 (MCF7; read-out: IC50) [nM]
CON(C1CCC2(C)C(CCC3C2CCC2(C)C(C4=CC(=O)OC4)CCC32O)C1)C1OCC(O)C(O)C1O [15α, D-lyxoside]	> 25000	> 25000	> 25000	> 25000	> 25000	> 25000	> 25000	> 25000	> 25000	> 25000	–	–	–	–	–	–	–	–	–	–
CON(C1CCC2(C)C(CCC3C2CCC2(C)C(C4=CC(=O)OC4)CCC32O)C1)C1OC(C)C(O)C(O)C1O [11α, 6-deoxy-D-glucoside]	> 25000	> 25000	> 25000	> 25000	> 25000	> 25000	> 25000	> 25000	> 25000	> 25000	–	–	–	–	–	–	–	–	–	–
CON([C@H]1CC[C@@]2(C)[C@H](CC[C@@H]3[C@@H]2CC[C@]2(C)[C@@H](C4=CC(=O)OC4)CC[C@]32O)C1)[C@@H]1O[C@H](CF)[C@@H](O)[C@H](O)[C@H]1O [13β, 6-deoxy-6-fluoro-D-glucoside]	> 25000	1400	2000	4600	4800	4700	1100	3400	5000	6200	–	–	–	–	–	–	–	–	–	–
CON(C1CCC2(C)C(CCC3C2CCC2(C)C(C4=CC(=O)OC4)CCC32O)C1)C1OC(C(=O)O)C(O)C(O)C1O [38β, D-galacturonoside]	> 25000	1400	2200	2100	2700	2200	1600	3100	1900	5000	–	–	–	–	–	–	–	–	–	–
CON(C1CCC2(C)C(CCC3C2CCC2(C)C(C4=CC(=O)OC4)CCC32O)C1)C1OC(CO)C(O)C(O)C1O [39α, L-taloside]	–	–	–	–	–	–	–	–	–	–	> 25000	> 25000	> 25000	> 25000	> 25000	> 25000	> 25000	> 25000	> 25000	> 25000
CON([C@H]1CC[C@@]2(C)[C@H](CC[C@@H]3[C@@H]2CC[C@]2(C)[C@@H](C4=CC(=O)OC4)CC[C@]32O)C1)[C@@H]1O[C@H](C)[C@H](O)[C@H](O)[C@H]1O [8β, D-fucoside]	> 25000	1300	1800	4900	7000	10000	1500	5000	3900	11000	–	–	–	–	–	–	–	–	–	–
CON([C@H]1CC[C@@]2(C)[C@H](CC[C@@H]3[C@@H]2CC[C@]2(C)[C@@H](C4=CC(=O)OC4)CC[C@]32O)C1)[C@@H]1O[C@H](CO)[C@@H](O)[C@H](O)[C@H]1F [12β, 2-deoxy-2-fluoro-D-glucoside]	> 25000	2900	3700	8000	8000	7000	2600	9000	9000	8000	–	–	–	–	–	–	–	–	–	–
CON([C@H]1CC[C@@]2(C)[C@H](CC[C@@H]3[C@@H]2CC[C@]2(C)[C@@H](C4=CC(=O)OC4)CC[C@]32O)C1)[C@@H]1O[C@H](CO)[C@@H](O)C[C@H]1O [10β, 3-deoxy-D-glucoside]	940	1600	1600	1700	1800	770	440	2500	800	460	–	–	–	–	–	–	–	–	–	–
C[C@]12CC[C@H](O[C@@H]3O[C@H](CO)[C@@H](O)[C@H](O)[C@H]3O)C[C@H]1CC[C@@H]1[C@@H]2CC[C@]2(C)[C@@H](C3=CC(=O)OC3)CC[C@]12O [43β, O-D-glucoside]	> 25000	390	290	210	600	220	190	400	220	700	–	–	–	–	–	–	–	–	–	–
CON([C@H]1CC[C@@]2(C)[C@H](CC[C@@H]3[C@@H]2CC[C@]2(C)[C@@H](C4=CC(=O)OC4)CC[C@]32O)C1)[C@@H]1O[C@H](CO)[C@@H](O)[C@@H](O)[C@H]1O [18β, D-alloside]	3100	3200	2000	3300	6000	3500	800	6400	2200	6800	–	–	–	–	–	–	–	–	–	–
CON([C@H]1CC[C@@]2(C)[C@H](CC[C@@H]3[C@@H]2CC[C@]2(C)[C@@H](C4=CC(=O)OC4)CC[C@]32O)C1)[C@@H]1O[C@H](CO)[C@H](O)[C@@H](O)[C@@H]1O [29β, D-idoside]	> 25000	1300	370	300	2300	1300	1500	1500	1300	440	–	–	–	–	–	–	–	–	–	–
CON(C1CCC2(C)C(CCC3C2CCC2(C)C(C4=CC(=O)OC4)CCC32O)C1)C1OC(C(=O)O)C(O)C(O)C1O [38α, D-galacturonoside]	–	–	–	–	–	–	–	–	–	–	> 25000	> 25000	> 25000	> 25000	> 25000	> 25000	> 25000	> 25000	> 25000	> 25000
CON(C1CCC2(C)C(CCC3C2CCC2(C)C(C4=CC(=O)OC4)CCC32O)C1)C1OC(CO)C(O)C(O)C1O [25α, D-guloside]	–	> 25000	> 25000	> 25000	> 25000	> 25000	> 25000	> 25000	> 25000	> 25000	> 25000	–	–	–	–	–	–	–	–	–
CON(C1CCC2(C)C(CCC3C2CCC2(C)C(C4=CC(=O)OC4)CCC32O)C1)C1OC(C)C(O)C(O)C1O [7α, L-fucoside]	> 25000	> 25000	> 25000	> 25000	> 25000	> 25000	> 25000	> 25000	> 25000	> 25000	–	–	–	–	–	–	–	–	–	–
CON(C1CCC2(C)C(CCC3C2CCC2(C)C(C4=CC(=O)OC4)CCC32O)C1)C1OC(CO)C(OC2OC(CO)C(O)C(O)C2O)C(O)C1O (stereo not drawn) [36α, lactoside]	–	–	–	–	–	–	–	–	–	–	> 25000	> 25000	> 25000	> 25000	> 25000	> 25000	> 25000	> 25000	> 25000	> 25000
CON([C@H]1CC[C@@]2(C)[C@H](CC[C@@H]3[C@@H]2CC[C@]2(C)[C@@H](C4=CC(=O)OC4)CC[C@]32O)C1)[C@H]1O[C@@H](CO)[C@@H](O)[C@@H](O)[C@@H]1O [21β, L-galactoside]	1000	2600	900	1300	2100	1400	1600	1600	2100	1800	–	–	–	–	–	–	–	–	–	–
CON([C@H]1CC[C@@]2(C)[C@H](CC[C@@H]3[C@@H]2CC[C@]2(C)[C@@H](C4=CC(=O)OC4)CC[C@]32O)C1)[C@H]1O[C@@H](CO)[C@H](O)[C@H](O)[C@@H]1O [17β, L-alloside]	330	690	240	800	500	400	160	700	790	900	–	–	–	–	–	–	–	–	–	–
CON(C1CCC2(C)C(CCC3C2CCC2(C)C(C4=CC(=O)OC4)CCC32O)C1)C1OC(CO)C(O)C(O)C1O [26α, L-mannoside]	–	> 25000	> 25000	> 25000	> 25000	> 25000	> 25000	> 25000	> 25000	> 25000	> 25000	–	–	–	–	–	–	–	–	–
CON([C@H]1CC[C@@]2(C)[C@H](CC[C@@H]3[C@@H]2CC[C@]2(C)[C@@H](C4=CC(=O)OC4)CC[C@]32O)C1)[C@H]1O[C@@H](CO)[C@H](O)[C@H](O)[C@H]1O [19β, L-altroside]	1000	1600	760	2000	1100	1200	410	1000	2100	1300	–	–	–	–	–	–	–	–	–	–
